Reference: patent US10350199B2, “3-(1h-pyrrolo[2,3-b]pyridin-2-yl)-1h-indazoles and therapeutic uses thereof” (Samumed, LLC, priority 2015, dated 2019)
pEC50: −log10 of the molar value.

What was measured:
Format in all cases: cell-based
[1] = test system: Wnt activity (Sp5-Luc reporter, SW480 colon carcinoma cells); assay: Wnt activity screening assay, Sp5-Luc reporter gene in SW480 cells; details: Homo sapiens; for inhibition at 10 µM: SW480, read-out: percent inhibition at 10 μM; for pEC50: Sp5-Luc reporter, SW480 cells, overnight incubation
Description: The screening assay for Wnt activity is described as follows. Reporter cell lines can be generated by stably transducing cancer cell lines (e.g., colon cancer) or primary cells (e.g., IEC-6 intestinal cells) with a lentiviral construct that includes a Wnt-responsive promoter driving expression of the firefly luciferase gene.
SW480 colon carcinoma cells were transduced with a lentiviral vector expressing luciferase with a human Sp5 promoter consisting of a sequence of eight TCF/LEF binding sites. SW480 cells stably expressing the Sp5-Luc reporter gene and a hygromycin resistance gene were selected by treatment with 150 μg/mL of hygromycin for 7 days. These stably transduced SW480 cells were expanded in cell culture and used for all further screening activities. […] For Sp5-Luc reporter gene assays, the cells were plated at 4,000 cells/well in 384-well plates with medium containing 1% fetal bovine serum and incubated overnight at 37° C. and 5% CO2. Following incubation, 20 μl of BrightGlo luminescence reagent (Promega) was added to each well of the 384-well assay plates. The plates were placed on an orbital shaker for 2 min and then luminescence was quantified using the Envision (Perkin Elmer) plate reader. Readings were normalized to DMSO only treated cells, and normalized activities were utilized for EC50 calculations using the dose-response log (inhibitor) vs. response -variable slope (four parameters) nonlinear regression feature available in GraphPad Prism 5.0 (or Dotmatics).

SW480 colon cancer cells = assay: Cell viability assay (CellTiter-Blue), SW480 cells, four days; details: Homo sapiens; for pEC50: 96 h, SW480 cell viability, four days, CellTiter-Blue; for inhibition at 10 µM: SW480, read-out: percent inhibition at 10 μM
Method: Representative compounds were screened using the following assay procedure to assess the effect on cell viability as described below.
Approximately 2×10^3 SW480 colon cancer cells were seeded into each well and allowed to incubate in the presence or absence of compound for four days at 37° C./5% CO2. Eight replicates of DMSO-treated cells served as controls and cells treated with compound were performed in duplicate.
After incubation, 20 μL of CellTiter-Blue (Promega) was added to each well allowed to incubate for approximately 3 hours. This reagent was a buffered solution which contains resazurin, metabolically active cells were able to reduce rezarurin (blue) into resorufin (pink) which was highly fluorescent. This measured fluorescence was used as a readout for cell viability.

[2] = test system: primary human fibroblasts derived from IPF patients (LL29 cells) treated with TGF-β1; assay: Inhibition of the fibrotic process: αSMA staining in TGF-β1 treated LL29 fibroblasts; details: Fibroblast; for pEC50: 96 h, LL29 cells, TGF-β1 20 ng/mL, 4 days, % αSMA positive cells; for inhibition at 10 µM: read-out: percent inhibition at 10 μM
Method: Representative compounds were screened using primary human fibroblasts (derived from IPF patients) treated with TGF-β1 to determine their ability to inhibit the fibrotic process.
LL29 cells are plated at 1,500 cells/well in 80 μL/well F12 medium supplemented with 1% Fetal Bovine Serum. […] Wells treated with TGF-β1 and containing DMSO were used as controls. […] Following incubation for 4 days, SYTOX green nucleic acid stain (Life Technologies [Thermo Fisher Scientific]) was added to the wells at a final concentration of 1 μM and incubated at room temperature for 30 min.

[3] = test system: IL-6 (THP-1 human monocyte cell line); assay: IL-6 inhibition in LPS-stimulated THP-1 cells (HTRF); details: for pEC50: IL-6 inhibition, LPS-stimulated THP-1 cells, HTRF; for inhibition at 10 µM: THP-1, read-out: percentage in parentheses beside EC50 >10 (IL-6 inhibition)
Method: THP-1 cells were cultured in basal media with 1% FBS for 24 hours before the start of the assay. […] THP-1 cells were plated at 5000 cells/well in the 384-well plates and incubated at 37° C. for 2 h. 500 ng/mL of LPS was added after 2 hours and cells were incubated for another 22 hours at 37° C. Plates were spun in a centrifuge for 1 minute at […] and a mixture of anti-IL6 XL665, and anti-IL6 Cryptate diluted in reconstitution buffer (Cisbio Inc.) was added to each well. Following incubation for 3 hrs at room temperature, Homogeneous Time-Resolved Fluorescence (HTRF) was measured using the Envision (Perkin Elmer) at 665 nm and […]. The ratio of fluorescence at 665 nm to 620 nm was used as a readout for IL6 quantification. All samples were processed in duplicate. Readings were normalized to DMSO treated cells and normalized activities were utilized for EC50 calculations using the dose-response log (inhibitor) vs. response -variable slope (four parameters) nonlinear regression feature available in GraphPad Prism 5.0 (or Dotmatics).

O=C(Nc1cncc(-c2ccc3[nH]nc(-c4cc5c(-c6ccccc6F)ccnc5[nH]4)c3c2)c1)C1CCCC1 [Compound 78, N-(5-(3-(4-(2-Fluorophenyl)-1H-pyrrolo[2,3-b]pyridin-2-yl)-1H-indazol-5-yl)pyridin-3-yl)cyclopentanecarboxamide]
inhibition at 10 µM [1]: 1.9% | pEC50 [1]: < 5.00 | pEC50 (SW480 colon cancer cells): < 5.00 | inhibition at 10 µM (SW480 colon cancer cells): 14.4% | pEC50 [2]: < 5.00 | inhibition at 10 µM [2]: 39% | pEC50 [3]: < 5.00 | inhibition at 10 µM [3]: 39.9%

O=C(Cc1ccccc1)Nc1cncc(-c2ccc3[nH]nc(-c4cc5c(-c6ccncc6)ccnc5[nH]4)c3c2)c1 [Compound 122, 2-Phenyl-N-(5-(3-(4-(pyridin-4-yl)-1H-pyrrolo[2,3-b]pyridin-2-yl)-1H-indazol-5-yl)pyridin-3-yl)acetamide]
inhibition at 10 µM [1]: 28.3% | pEC50 [1]: < 5.00 | pEC50 (SW480 colon cancer cells): 5.71 | pEC50 [2]: 5.21 | pEC50 [3]: < 5.00 | inhibition at 10 µM [3]: 47.3%

CCC(=O)Nc1cncc(-c2ccc3[nH]nc(-c4cc5c(-c6ccccn6)ccnc5[nH]4)c3c2)c1 [Compound 141, N-(5-(3-(4-(Pyridin-2-yl)-1H-pyrrolo[2,3-b]pyridin-2-yl)-1H-indazol-5-yl)pyridin-3-yl)propionamide]
pEC50 [1]: 6.62 | pEC50 (SW480 colon cancer cells): 5.22 | pEC50 [2]: 5.78 | pEC50 [3]: < 5.00 | inhibition at 10 µM [3]: 30.3%

O=C(Nc1cncc(-c2ccc3[nH]nc(-c4cc5c(-c6ccccn6)ccnc5[nH]4)c3c2)c1)C1CCCCC1 [Compound 163, N-(5-(3-(4-(Pyridin-2-yl)-1H-pyrrolo[2,3-b]pyridin-2-yl)-1H-indazol-5-yl)pyridin-3-yl)cyclohexanecarboxamide]
inhibition at 10 µM [1]: 38.8% | pEC50 [1]: < 5.00 | pEC50 (SW480 colon cancer cells): < 5.00 | inhibition at 10 µM (SW480 colon cancer cells): 11.1% | pEC50 [2]: < 5.00 | inhibition at 10 µM [2]: 0% | pEC50 [3]: 5.81

CCC(=O)Nc1cncc(-c2ccc3[nH]nc(-c4cc5c(N6CCCCC6)ccnc5[nH]4)c3c2)c1 [Compound 169, N-(5-(3-(4-(Piperidin-1-yl)-1H-pyrrolo[2,3-b]pyridin-2-yl)-1H-indazol-5-yl)pyridin-3-yl)propionamide]
pEC50 [1]: 5.91 | pEC50 (SW480 colon cancer cells): < 5.00 | inhibition at 10 µM (SW480 colon cancer cells): 38.1% | pEC50 [2]: < 5.00 | inhibition at 10 µM [2]: 11.6% | pEC50 [3]: < 5.00 | inhibition at 10 µM [3]: 33%

CN(C)c1cncc(-c2ccc3[nH]nc(-c4cc5c(N6CCCCC6)ccnc5[nH]4)c3c2)c1 [Compound 175, N,N-Dimethyl-5-(3-(4-(piperidin-1-yl)-1H-pyrrolo[2,3-b]pyridin-2-yl)-1H-indazol-5-yl)pyridin-3-amine]
inhibition at 10 µM [1]: 10.7% | pEC50 [1]: < 5.00 | pEC50 (SW480 colon cancer cells): < 5.00 | inhibition at 10 µM (SW480 colon cancer cells): 13.1% | pEC50 [2]: < 5.00 | inhibition at 10 µM [2]: 11.3% | pEC50 [3]: < 5.00 | inhibition at 10 µM [3]: 15.2%

O=C(Cc1ccccc1)Nc1cncc(-c2ccc3[nH]nc(-c4cc5c(N6CCCCC6)ccnc5[nH]4)c3c2)c1 [Compound 178, 2-Phenyl-N-(5-(3-(4-(piperidin-1-yl)-1H-pyrrolo[2,3-b]pyridin-2-yl)-1H-indazol-5-yl)pyridin-3-yl)acetamide]
inhibition at 10 µM [1]: 13.8% | pEC50 [1]: < 5.00 | pEC50 (SW480 colon cancer cells): < 5.00 | inhibition at 10 µM (SW480 colon cancer cells): 18.7% | pEC50 [2]: < 5.00 | inhibition at 10 µM [2]: 0% | pEC50 [3]: < 5.00 | inhibition at 10 µM [3]: 36.5%

CN(C)Cc1cncc(-c2ccc3[nH]nc(-c4cc5c(N6CCCCC6)ccnc5[nH]4)c3c2)c1 [Compound 181, N,N-Dimethyl-1-(5-(3-(4-(piperidin-1-yl)-1H-pyrrolo[2,3-b]pyridin-2-yl)-1H-indazol-5-yl)pyridin-3-yl)methanamine]
inhibition at 10 µM [1]: 26.2% | pEC50 [1]: < 5.00 | pEC50 (SW480 colon cancer cells): < 5.00 | inhibition at 10 µM (SW480 colon cancer cells): 17.6% | pEC50 [2]: < 5.00 | inhibition at 10 µM [2]: 9.1% | pEC50 [3]: < 5.00 | inhibition at 10 µM [3]: 29%

CC(C)(C)CC(=O)Nc1cncc(-c2ccc3[nH]nc(-c4cc5c(N6CCCCC6)ccnc5[nH]4)c3c2)c1 [Compound 184, 3,3-Dimethyl-N-(5-(3-(4-(piperidin-1-yl)-1H-pyrrolo[2,3-b]pyridin-2-yl)-1H-indazol-5-yl)pyridin-3-yl)butanamide]
inhibition at 10 µM [1]: 11.9% | pEC50 [1]: < 5.00 | pEC50 (SW480 colon cancer cells): < 5.00 | inhibition at 10 µM (SW480 colon cancer cells): 1.6% | pEC50 [2]: < 5.00 | pEC50 [3]: 5.40

O=C(Nc1cncc(-c2ccc3[nH]nc(-c4cc5c(N6CCCCC6)ccnc5[nH]4)c3c2)c1)C1CC1 [Compound 188, N-(5-(3-(4-(Piperidin-1-yl)-1H-pyrrolo[2,3-b]pyridin-2-yl)-1H-indazol-5-yl)pyridin-3-yl)cyclopropanecarboxamide]
inhibition at 10 µM [1]: 27.6% | pEC50 [1]: < 5.00 | pEC50 (SW480 colon cancer cells): < 5.00 | inhibition at 10 µM (SW480 colon cancer cells): 12.9% | pEC50 [2]: < 5.00 | inhibition at 10 µM [2]: 17.4% | pEC50 [3]: < 5.00 | inhibition at 10 µM [3]: 4.1%

c1cc(N2CCCCC2)c2cc(-c3n[nH]c4ccc(-c5cncc(CNCC6CCCC6)c5)cc34)[nH]c2n1 [Compound 193, 1-Cyclopentyl-N-((5-(3-(4-(piperidin-1-yl)-1H-pyrrolo[2,3-b]pyridin-2-yl)-1H-indazol-5-yl)pyridin-3-yl)methyl)methanamine]
inhibition at 10 µM [1]: 8% | pEC50 [1]: < 5.00 | pEC50 (SW480 colon cancer cells): < 5.00 | inhibition at 10 µM (SW480 colon cancer cells): 12.5% | pEC50 [2]: < 5.00 | inhibition at 10 µM [2]: 24.9% | pEC50 [3]: < 5.00 | inhibition at 10 µM [3]: 18%

FC1(F)CCN(Cc2cncc(-c3ccc4[nH]nc(-c5cc6c(N7CCCCC7)ccnc6[nH]5)c4c3)c2)C1 [Compound 194, 5-(5-((3,3-Difluoropyrrolidin-1-yl)methyl)pyridin-3-yl)-3-(4-(piperidin-1-yl)-1H-pyrrolo[2,3-b]pyridin-2-yl)-1H-indazole]
inhibition at 10 µM [1]: 26.2% | pEC50 [1]: < 5.00 | pEC50 (SW480 colon cancer cells): < 5.00 | inhibition at 10 µM (SW480 colon cancer cells): 18.5% | pEC50 [2]: 5.23 | pEC50 [3]: < 5.00 | inhibition at 10 µM [3]: 33%

c1cnc2[nH]c(-c3n[nH]c4ccc(-c5ccncc5)cc34)cc2c1 [Compound 270, 5-(Pyridin-4-yl)-3-(1H-pyrrolo[2,3-b]pyridin-2-yl)-1H-indazole]
inhibition at 10 µM [1]: 45.7% | pEC50 [1]: < 5.00 | pEC50 (SW480 colon cancer cells): < 5.00 | inhibition at 10 µM (SW480 colon cancer cells): 15.2% | pEC50 [2]: 5.19 | pEC50 [3]: < 5.00 | inhibition at 10 µM [3]: 48.3%

c1ncc(-c2ccc3[nH]nc(-c4cc5c(-c6ccsc6)ccnc5[nH]4)c3c2)cn1 [Compound 307, 5-(Pyrimidin-5-yl)-3-(4-(thiophen-3-yl)-1H-pyrrolo[2,3-b]pyridin-2-yl)-1H-indazole]
inhibition at 10 µM [1]: 6% | pEC50 [1]: < 5.00 | pEC50 (SW480 colon cancer cells): < 5.00 | inhibition at 10 µM (SW480 colon cancer cells): 0% | pEC50 [2]: < 5.00 | inhibition at 10 µM [2]: 0% | pEC50 [3]: < 5.00 | inhibition at 10 µM [3]: 45.5%

CN(C)Cc1cncc(-c2ccc3[nH]nc(-c4cc5c(-c6ccoc6)ccnc5[nH]4)c3c2)c1 [Compound 321, 1-(5-(3-(4-(Furan-3-yl)-1H-pyrrolo[2,3-b]pyridin-2-yl)-1H-indazol-5-yl)pyridin-3-yl)-N,N-dimethylmethanamine]
inhibition at 10 µM [1]: 3.7% | pEC50 [1]: < 5.00 | pEC50 (SW480 colon cancer cells): < 5.00 | inhibition at 10 µM (SW480 colon cancer cells): 7.9% | pEC50 [2]: 5.86 | pEC50 [3]: < 5.00 | inhibition at 10 µM [3]: 19%
